These results are taken from PubChem BioAssay AID330 (DTP/NCI, 2004).

The test deals with P388 leukemia ip, CD2F1 mice, survival T/C. The experiment in a line: NCI In Vivo Anticancer Drug Screen. Data for tumor model P388 Leukemia (intraperitoneal) in CD2F1 (CDF1) mice. The following applies: endpoint: median survival time, higher = longer survival. The method, boiled down:
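Mice carrying the transplanted tumor received test compound or vehicle. Survival was recorded in each group, and the value is the treated-group measurement divided by that of the vehicle-treated control group.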

Where [1] appears, read: dose: 50.0 mg/kg/injection, schedule: Q01DX009 (ip), vehicle: saline.
The mark [2] stands for this setting: dose: 100.0 mg/kg/injection, schedule: Q01DX009 (ip), vehicle: saline.
[3] abbreviates: dose: 200.0 mg/kg/injection, schedule: Q01DX009 (ip), vehicle: saline.
Where [4] appears, read: dose: 60.0 mg/kg/injection, schedule: Q01DX005 (ip), vehicle: saline.
Setting [5] is: dose: 120.0 mg/kg/injection, schedule: Q01DX005 (ip), vehicle: saline.
The mark [6] stands for this setting: dose: 240.0 mg/kg/injection, schedule: Q01DX005 (ip), vehicle: saline.
[7] abbreviates: dose: 25.0 mg/kg/injection, schedule: Q01DX009 (ip), vehicle: saline with Tween-80.
The mark [8] stands for this setting: dose: 50.0 mg/kg/injection, schedule: Q01DX009 (ip), vehicle: saline with Tween-80.
[9] abbreviates: dose: 100.0 mg/kg/injection, schedule: Q04DX002 (ip), vehicle: saline with Tween-80.
[10] abbreviates: dose: 12.5 mg/kg/injection, schedule: Q01DX005 (ip), vehicle: Klucel (hydroxypropylcellulose) (HPC).
Setting [11] is: dose: 25.0 mg/kg/injection, schedule: Q01DX005 (ip), vehicle: Klucel (hydroxypropylcellulose) (HPC).
Setting [12] is: dose: 50.0 mg/kg/injection, schedule: Q01DX005 (ip), vehicle: Klucel (hydroxypropylcellulose) (HPC).
[13] abbreviates: dose: 25.0 mg/kg/injection, schedule: Q01DX005 (ip), vehicle: saline.
[14] abbreviates: dose: 50.0 mg/kg/injection, schedule: Q01DX005 (ip), vehicle: saline.
The mark [15] stands for this setting: dose: 12.5 mg/kg/injection, schedule: Q01DX009 (ip), vehicle: saline with Tween-80.
[16] abbreviates: dose: 12.5 mg/kg/injection, schedule: Q01DX009 (ip), vehicle: saline.
[17] abbreviates: dose: 25.0 mg/kg/injection, schedule: Q01DX009 (ip), vehicle: saline.
The mark [18] stands for this setting: dose: 60.0 mg/kg/injection, schedule: Q01DX005 (ip), vehicle: saline with Tween-80.
The mark [19] stands for this setting: dose: 120.0 mg/kg/injection, schedule: Q01DX005 (ip), vehicle: saline with Tween-80.
Where [20] appears, read: dose: 240.0 mg/kg/injection, schedule: Q01DX005 (ip), vehicle: saline with Tween-80.
Setting [21] is: dose: 100.0 mg/kg/injection, schedule: Q01DX005 (ip), vehicle: Klucel (hydroxypropylcellulose) (HPC).

Where “and” joins values, the source holds several entries; their conditions need not be identical. Identical values can stand only once. Inconclusive results and toxic doses are left out.

As to `O=C(O)C1=NN(c2ccc(S(=O)(=O)O)cc2)C(=O)C1N=Nc1ccc(S(=O)(=O)O)cc1` (stereo unspecified), the T/C by setting is: under setting [1], 95 % of control; under setting [2], 100 % of control; under setting [3], 100 % of control; (dose: 400.0 mg/kg/injection, schedule: Q01DX009 (ip), vehicle: saline) 95 % of control.
For `C#CCCCOC1CCCCO1` (stereo unspecified), the T/C is, setting by setting: under setting [4], 100 % of control; under setting [5], 100 % of control; under setting [6], 100 % of control.
Regarding `CCCCCCCCCCCCCCCCOc1ccc(C(=O)O)cc1S(=O)(=O)N/N=c1/sc2cc(Cl)cc(Cl)c2n1C`, the T/C reads like this: under setting [1], 88 % of control; under setting [2], 93 % of control; under setting [3], 86 % of control.
As to `Cc1cc(C(C)(CC(C)C)c2ccc(O)c(C)c2)ccc1O`, the T/C runs as follows: under setting [7], 116 % of control; under setting [8], 98 % of control.
Turning to `O=C(CC(=NCC(O)CN=C(CC(=O)c1ccccc1)c1ccccc1)c1ccccc1)c1ccccc1` (stereo unspecified), the T/C is 98 % of control under setting [9]; 98 % of control (dose: 200.0 mg/kg/injection, schedule: Q04DX002 (ip), vehicle: saline with Tween-80); 91 % of control (dose: 400.0 mg/kg/injection, schedule: Q04DX002 (ip), vehicle: saline with Tween-80).
On to `Cc1c2cnccc2c(C)c2c1c1ccccc1n2CCCCCCCCCCn1c2ccccc2c2c(C)c3cnccc3c(C)c21`, for which the T/C reads like this: (dose: 25.0 mg/kg/injection, schedule: Q04DX002 (ip), vehicle: saline with Tween-80) 98 % of control; (dose: 50.0 mg/kg/injection, schedule: Q04DX002 (ip), vehicle: saline with Tween-80) 92 % of control; under setting [9], 89 % of control.
`COc1ccc2c(C)cc(=O)sc2c1`: the T/C runs as follows: (dose: 50.0 mg/kg/injection, schedule: Q01DX009 (ip), vehicle: saline + Tween-80 + alcohol) 101 % of control; (dose: 100.0 mg/kg/injection, schedule: Q01DX009 (ip), vehicle: saline + Tween-80 + alcohol) 104 % of control; (dose: 200.0 mg/kg/injection, schedule: Q01DX009 (ip), vehicle: saline + Tween-80 + alcohol) 100 % of control.
For `O=C(Nc1ncc([N+](=O)[O-])s1)c1cc(Cl)cc(Cl)c1`, the T/C by setting is: under setting [10], 104 % of control; under setting [11], 100 % of control; under setting [12], 100 % of control and 101 % of control.
With `O/N=C\c1ccccc1P(c1ccccc1)c1ccccc1/C=N\O`, the T/C is 93 % of control (dose: 50.0 mg/kg/injection, schedule: Q01DX005 (ip), vehicle: saline with Tween-80); 92 % of control (dose: 100.0 mg/kg/injection, schedule: Q01DX005 (ip), vehicle: saline with Tween-80); 90 % of control (dose: 200.0 mg/kg/injection, schedule: Q01DX005 (ip), vehicle: saline with Tween-80).
For the compound `COc1c2c(c3c(c1OC)CCN(CC(c1ccccc1)c1ccccc1)C3)CCC2`, the T/C reads like this: (dose: 100.0 mg/kg/injection, schedule: Q04DX002 (ip), vehicle: saline) 101 % of control; (dose: 200.0 mg/kg/injection, schedule: Q04DX002 (ip), vehicle: saline) 100 % of control; (dose: 400.0 mg/kg/injection, schedule: Q04DX002 (ip), vehicle: saline) 103 % of control.
As to `CC(C)CCCCCCCCCCCCC(=O)NCC(=O)NC1C(C)OC(Nc2ncnc3nc[nH]c23)C(O)C1O` (stereo unspecified), the T/C reads like this: (dose: 0.13 mg/kg/injection, schedule: Q01DX009 (ip), vehicle: other) 114 % of control; (dose: 0.25 mg/kg/injection, schedule: Q01DX009 (ip), vehicle: other) 121 % of control; (dose: 0.5 mg/kg/injection, schedule: Q01DX009 (ip), vehicle: other) 123 % of control; (dose: 1.0 mg/kg/injection, schedule: Q01DX009 (ip), vehicle: other) 157 % of control and 163 % of control; (dose: 1.0 mg/kg/injection, schedule: Q01DX009 (oral), vehicle: distilled water + Tween-80) 104 % of control; (dose: 2.0 mg/kg/injection, schedule: Q01DX009 (oral), vehicle: distilled water + Tween-80) 102 % of control. The T/C is, setting by setting: (dose: 4.0 mg/kg/injection, schedule: Q01DX009 (ip), vehicle: other) 97 % of control; (dose: 4.0 mg/kg/injection, schedule: Q01DX009 (oral), vehicle: distilled water + Tween-80) 105 % of control; (dose: 8.0 mg/kg/injection, schedule: Q01DX009 (oral), vehicle: distilled water + Tween-80) 103 % of control; (dose: 16.0 mg/kg/injection, schedule: Q01DX009 (oral), vehicle: distilled water + Tween-80) 104 % of control.
Regarding `CN(C)CC(CN(C)C)C(=O)c1ccc(Cl)cc1`, the T/C runs as follows: (dose: 6.25 mg/kg/injection, schedule: Q01DX005 (ip), vehicle: saline) 107 % of control and 95 % of control and 96 % of control; (dose: 12.5 mg/kg/injection, schedule: Q01DX005 (ip), vehicle: saline) 107 % of control and 115 % of control and 116 % of control; under setting [13], 107 % of control and 118 % of control and 124 % of control; under setting [14], 104 % of control and 113 % of control.
For the compound `CCCCCCCCCCCCCCCC[N+](C)(C)CCOC(C)=O`, the T/C runs as follows: under setting [15], 109 % of control; under setting [16], 111 % of control; under setting [7], 109 % of control; under setting [17], 100 % of control.
In the case of `COC(=O)c1cc(-c2ccc(OC)cc2)c2c(=O)n(-c3ccccc3)[nH]c2n1`, the T/C reads like this: under setting [18], 101 % of control; under setting [19], 99 % of control; under setting [20], 94 % of control.
Turning to `CNc1ccc([N+](=O)[O-])cc1/C([O-])=C\[S+](C)(C)=O`, the T/C runs as follows: (dose: 100.0 mg/kg/injection, schedule: Q04DX003 (ip), vehicle: saline) 97 % of control; (dose: 200.0 mg/kg/injection, schedule: Q04DX003 (ip), vehicle: saline) 106 % of control; (dose: 400.0 mg/kg/injection, schedule: Q04DX003 (ip), vehicle: saline) 97 % of control.
As to `Cc1nnc2c3[nH]c4ccccc4c3cnn12`, the T/C runs as follows: under setting [4], 104 % of control; under setting [5], 95 % of control; under setting [6], 103 % of control.
`COc1ccc(CC#N)c(OC)c1`: the T/C is 102 % of control (dose: 12.5 mg/kg/injection, schedule: Q01DX009 (ip), vehicle: other) and 102 % of control (dose: 25.0 mg/kg/injection, schedule: Q01DX009 (ip), vehicle: other).
As to `O=C(c1ccccc1)c1ccc[n+](Cc2ccccc2)c1`, the T/C runs as follows: under setting [13], 100 % of control; under setting [14], 111 % of control; (dose: 100.0 mg/kg/injection, schedule: Q01DX005 (ip), vehicle: saline) 109 % of control.
Regarding `OCc1nccn1Cc1ccccc1`, the T/C (dose: 50.0 mg/kg/injection, schedule: Q01DX001 (ip), vehicle: saline) is 115 % of control and the T/C (dose: 100.0 mg/kg/injection, schedule: Q01DX001 (ip), vehicle: saline) is 95 % of control.
As to `O=C(CCC(=O)C1CCCC1=O)Nc1cccc([N+](=O)[O-])c1` (stereo unspecified), the T/C by setting is: under setting [18], 102 % of control; under setting [19], 102 % of control; under setting [20], 101 % of control.
`Cc1cc2nc3ccc(O)cc3[n+](C)c2cc1N`: the T/C was 98 % of control and 103 % of control under setting [16]; 100 % of control and 106 % of control under setting [17]; 96 % of control and 97 % of control under setting [1]; 99 % of control and 96 % of control under setting [2].
Consider `CO/N=C(\N)NC(=O)Cc1c(Cl)cccc1Cl`, for which the T/C is, setting by setting: (dose: 6.25 mg/kg/injection, schedule: Q01DX005 (ip), vehicle: Klucel (hydroxypropylcellulose) (HPC)) 94 % of control; under setting [10], 98 % of control; under setting [11], 100 % of control and 101 % of control; under setting [12], 103 % of control and 90 % of control; under setting [21], 100 % of control.
`O=C1OCC2CC3C4C=CC(C4)C3C12` (stereo unspecified): the T/C runs as follows: under setting [12], 103 % of control; under setting [21], 93 % of control.
As to `CCCCCCCCCCCCCCCCS.[Ge]`, the T/C was 106 % of control under setting [15], 98 % of control under setting [7] and 104 % of control under setting [8].
